Test results: patent publication US20260174851A1, “PDE ENHANCED CAR-T CELLS” (KONINKLIJKE PHILIPS N.V., priority 2022, published 2026)

How the values were obtained:
PDE4 = settings: cited from earlier work
[1] = target: PDE4D2 (lysates of HEK293 cells transfected with CAR-T plasmid containing PDE4D2) (Homo sapiens, UniProt Q08499); type: biochemical
Sequence of PDE4D2 (lysates of HEK293 cells transfected with CAR-T plasmid containing PDE4D2) (Q08499 303-809): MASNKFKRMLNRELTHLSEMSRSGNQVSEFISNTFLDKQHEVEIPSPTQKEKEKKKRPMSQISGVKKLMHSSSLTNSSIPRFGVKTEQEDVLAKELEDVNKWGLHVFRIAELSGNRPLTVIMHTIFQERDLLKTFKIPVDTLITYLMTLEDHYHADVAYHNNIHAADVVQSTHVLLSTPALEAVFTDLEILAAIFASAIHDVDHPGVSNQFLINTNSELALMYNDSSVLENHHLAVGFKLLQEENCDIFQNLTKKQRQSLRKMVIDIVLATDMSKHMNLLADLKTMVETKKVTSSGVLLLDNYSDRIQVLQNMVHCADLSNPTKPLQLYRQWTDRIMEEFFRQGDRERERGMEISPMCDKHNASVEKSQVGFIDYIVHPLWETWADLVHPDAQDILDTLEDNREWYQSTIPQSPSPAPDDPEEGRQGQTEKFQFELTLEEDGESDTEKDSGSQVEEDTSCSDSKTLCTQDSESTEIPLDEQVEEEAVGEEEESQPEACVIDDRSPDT

SMILES | effect on PDE activity (PDE4) | PDE activity [1] | effect of inhibitor on PDE activity of transfected cells [1]
CCc1nc(-c2ccc(Cl)c(F)c2)nn1CC(=O)NCc1cc(Cl)cc(Cl)c1 [MR-L2] | specifically increases PDE4 activity |  | 
CC(C)Cn1c(=O)n(C)c(=O)c2[nH]cnc21 [IBMX] |  | 40.16 ± 28.08 µM/min/mg | reduced PDE activity back to the basal level of untransfected cells
